BindingDB's records for PubMed 1988661 (Merck Sharp & Dohme Research Laboratories, 1991)
Residue numbers refer to the chain shown, from its start. Where “and” joins values, the source holds several entries; their conditions need not be identical. Equal values may be shown once. Square brackets hold non-standard residues; d marks the D form. Peptide text beside a SMILES is read from it. dPiz(1,6-dehydro) = O=C(O)[C@H]1CCC=NN1; Pip = O=C(O)[C@@H]1CCCCN1; dPip = O=C(O)[C@H]1CCCCN1

Legend:
[1] = target: Vasopressin V2 receptor (Rattus norvegicus, UniProt Q00788)
Vasopressin V2 receptor, sequence (Q00788 whole entry): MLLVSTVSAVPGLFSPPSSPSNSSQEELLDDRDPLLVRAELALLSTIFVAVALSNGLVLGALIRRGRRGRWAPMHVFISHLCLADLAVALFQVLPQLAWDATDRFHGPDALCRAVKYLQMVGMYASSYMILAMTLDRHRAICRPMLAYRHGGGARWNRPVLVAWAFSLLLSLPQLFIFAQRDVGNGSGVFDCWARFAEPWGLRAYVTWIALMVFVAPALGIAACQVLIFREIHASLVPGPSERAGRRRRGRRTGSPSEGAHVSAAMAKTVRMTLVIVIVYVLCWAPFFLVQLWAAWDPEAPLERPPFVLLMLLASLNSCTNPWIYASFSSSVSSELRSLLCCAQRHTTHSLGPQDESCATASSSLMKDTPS

[2] = target: T1, Oxytocin receptor (Homo sapiens, UniProt P30559)
T1 sequence (P30559 whole entry): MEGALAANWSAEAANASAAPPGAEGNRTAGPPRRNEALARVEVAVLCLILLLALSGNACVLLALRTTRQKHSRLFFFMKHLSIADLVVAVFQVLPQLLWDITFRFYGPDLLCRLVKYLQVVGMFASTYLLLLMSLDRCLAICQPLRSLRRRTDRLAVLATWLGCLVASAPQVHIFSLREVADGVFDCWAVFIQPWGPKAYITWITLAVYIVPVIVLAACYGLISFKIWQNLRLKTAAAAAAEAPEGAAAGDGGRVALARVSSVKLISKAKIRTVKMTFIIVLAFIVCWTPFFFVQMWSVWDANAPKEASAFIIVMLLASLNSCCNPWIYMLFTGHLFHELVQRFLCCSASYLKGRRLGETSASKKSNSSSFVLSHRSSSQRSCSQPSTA

[3] = target: T2, Oxytocin receptor (Rattus norvegicus, UniProt P70536)
T2 sequence (P70536 whole entry): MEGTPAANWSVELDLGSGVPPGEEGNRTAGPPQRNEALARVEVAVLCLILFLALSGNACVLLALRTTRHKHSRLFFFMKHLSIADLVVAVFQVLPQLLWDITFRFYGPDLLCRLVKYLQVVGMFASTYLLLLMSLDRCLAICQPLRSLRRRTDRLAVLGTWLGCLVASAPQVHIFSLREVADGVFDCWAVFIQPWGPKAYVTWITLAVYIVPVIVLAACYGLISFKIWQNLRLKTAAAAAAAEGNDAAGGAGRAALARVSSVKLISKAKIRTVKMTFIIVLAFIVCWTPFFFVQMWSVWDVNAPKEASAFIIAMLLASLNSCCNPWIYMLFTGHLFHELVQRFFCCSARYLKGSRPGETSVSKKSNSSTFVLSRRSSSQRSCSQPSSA

[4] = target: T3, Oxytocin receptor (Macaca mulatta, UniProt P56494)
T3 sequence (P56494 whole entry): T1 sequence (P30559 whole entry) with A4E, A11T, A14V, A16S, R27C, L51F, Q69H, V255M, R355N, A362T

[5] = target: T4, Rat vasopressin-neurophysin (Rattus norvegicus, UniProt Q6LEI5)
T4 sequence (Q6LEI5 whole entry): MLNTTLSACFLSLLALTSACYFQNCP

Compound: CCC(C)C(N)C(=O)N(C(=O)C1CCCN1C(=O)C(CC1=CC=CCC1(C(=O)N1C=CC=CC1)C(=O)N1CCNCC1)NC)C(C=O)Cc1c[nH]c2ccccc12 (centres undefined) [NSC_3083084]
- Ki [1]: 240 nM
- Ki [2]: 4.5 nM
- Ki [3]: 3.4 nM and 4.2 nM
- Ki [4]: 4.7 nM
- Ki [5]: 9500 nM

Compound: CCC(C)C1NC(=O)[C@H](Cc2ccccc2)NC(=O)[C@H]2CCCN2C(=O)[C@H](Cc2ccccc2)N(C)C(=O)[C@@H]2CCC=NN2C(=O)[C@H]2CCC=NN2C1=O (some centres undefined) [J325.338D]
- Ki [3]: 7.3 nM and 12 nM
- Ki [4]: 12 nM

Compound: CCC(C)C(NC(=O)C(N)Cc1ccc2ccccc2c1)C(=O)C1(C=O)CCCN1C(=O)C(N)CC1=NC(C(=O)N2CCCCC2)(C(=O)N2CCCCC2)N=C1 (centres undefined) [NSC_188397]
- Ki [1]: 810 nM and 320 nM
- Ki [2]: 5.1 nM
- Ki [3]: 0.7 nM and 0.8 nM
- Ki [4]: 6.4 nM
- Ki [5]: 760 nM

Compound: CC[C@H](C)[C@@H]1NC(=O)[C@@H](Cc2c[nH]c3ccccc23)NC(=O)[C@@H]2CCCN2C(=O)[C@@H](Cc2cnc[nH]2)NC(=O)[C@@H]2CCCCN2C(=O)[C@H]2CCC=NN2C1=O [J325.349J] (cyclo(I[dPiz(1,6-dehydro)][Pip][dH]P[dW]))
- Ki [1]: 370 nM
- Ki [2]: 1.3 nM
- Ki [3]: 1.3 nM and 2.5 nM
- Ki [4]: 2.3 nM
- Ki [5]: 1200 nM

Compound: CC[C@H](C)[C@@H]1NC(=O)[C@@H](Cc2ccccc2)NC(=O)[C@@H]2CCCN2C(=O)[C@@H](Cc2ccccc2)N(C)C(=O)[C@H]2CCC=NN2C1=O [J440.774A]
- Ki [1]: 550 nM
- Ki [2]: 21 nM
- Ki [3]: 6 nM and 13 nM
- Ki [4]: 33 nM
- Ki [5]: 240 nM

Compound: CC[C@H](C)[C@@H]1NC(=O)[C@@H](Cc2c[nH]c3ccccc23)NC(=O)[C@@H]2CCCN2C(=O)[C@@H](Cc2c[nH]cn2)NC(=O)[C@@H]2CCCCN2C(=O)[C@H]2CCCCN2C1=O [CAS_196819] (cyclo(I[dPip][Pip][dH]P[dW]))
- Ki [1]: 3100 nM
- Ki [5]: 2200 nM

Compound: CCC(C)C1NC(=O)[C@H](Cc2ccccc2)NC(=O)[C@H]2CCCN2C(=O)[C@H](Cc2ccccc2)N(C)C(=O)[C@H]2CC(CN(C)C)CNN2C(=O)[C@H]2CCC=NN2C1=O (some centres undefined) [J440.775J]
- Ki [1]: 1100 nM
- Ki [2]: 4.1 nM
- Ki [3]: 4.3 nM and 6.2 nM
- Ki [4]: 8.1 nM
- Ki [5]: 550 nM
